ChEMBL document CHEMBL2439992, “Fused 3-Hydroxy-3-trifluoromethylpyrazoles Inhibit Mutant Huntingtin Toxicity” (ACS Med Chem Lett, 2013)
In brackets after ≈: the same amount, converted by molar mass. Activity calls are given as the source filed them. The rule behind the calls is not given here.

Tests used:
[1] = target: Cytochrome P450 2C19 (Homo sapiens, UniProt P33261); test: Inhibition of CYP2C19 (unknown origin); type: ADME
[2] = Stability of the compound at pH 3 to 7.4 assessed as dehydration; type: physicochemical; conditions: buffer
[3] = organism: Rattus norvegicus; test: Inhibition of huntingtin 171-82Q mutant-mediated cell death in Sprague-Dawley rat striatal neurons at 10 to 30 uM by NeuN-positive cell counting assay
[4] = Kinetic solubility of the compound at pH 7.4; type: physicochemical; conditions: buffer, read-out: Kinetic_solubility
[5] = tested on: PC-12; test: Cytoprotective activity in rat PC12 cells after 72 hrs by LDH release assay; type: ADME, cell-based; conditions: pc-12, 72 h
[6] = target: Cytochrome P450 2C9 (Homo sapiens, UniProt P11712); test: Inhibition of CYP2C9 (unknown origin); type: ADME
[7] = tested on: Mus musculus; test: Antihuntington's disease activity in R6/2 transgenic mouse assessed as decrease in body weight at 10 to 30 mg/kg, po qd; type: functional, organism-based
[8] = tested on: Mus musculus; test: Antihuntington's disease activity in R6/2 transgenic mouse assessed as prevention of ventricular volume enlargment at 3 to 30 mg/kg, po qd measured after 8 weeks; type: functional, organism-based
[9] = Cytotoxicity in Sprague-Dawley rat striatal neurons; type: cell-based; conditions: neuron
[10] = tested on: Salmonella typhimurium; test: Genotoxicity in Salmonella typhimurium by Ames test; type: toxicity, organism-based; conditions: salmonella enterica subsp. enterica serovar typhimurium
[11] = tested on: HEK293; test: Inhibition of full-length huntingtin Q138 mutant (unknown origin) expressed in human T-RexTM-293 cells co-expressing CRE-Luc assessed as decrease of CREB-mediated transcription after 72 hrs by luciferase reporter gene based luminescence assay relative to control; type: cell-based
[12] = target: T1, Cytochrome P450 3A4 (Homo sapiens, UniProt P08684); test: Inhibition of CYP3A4 (unknown origin) using testosterone as substrate; type: ADME
[13] = Permeability of the compound from apical to basolateral side of MDCK cells expressing MDR1 after 120 mins; type: ADME, cell-based, Canis lupus familiaris; conditions: dog, read-out: permeability
[14] = Intrinsic clearance in human liver microsomes at 1 uM in presence of NADPH; type: ADME, Microsome; conditions: read-out: CLH
[15] = Intrinsic clearance in mouse liver microsomes at 1 uM in presence of NADPH; type: ADME, Microsome; conditions: read-out: CLH
[16] = tested on: MDCK; test: Efflux ratio of permeability […] in MDCK cells expressing MDR1 after 120 mins; type: ADME, cell-based, Canis lupus familiaris; conditions: dog, 2 h
[17] = target: Voltage-gated inwardly rectifying potassium channel KCNH2 (Homo sapiens, UniProt Q12809); test: Inhibition of human ERG up to 100 uM
[18] = tested on: PC-12; test: Inhibition of GFP tagged-exon-1 fragment of huntingtin 74Q mutant (unknown origin) expressed in rat PC12 cells assessed as protection against doxycycline-induced cell death after 72 hrs by LDH release assay; type: cell-based; conditions: Homo sapiens
[19] = target: T1, Cytochrome P450 3A4; test: Inhibition of CYP3A4 (unknown origin) using nifedipine as substrate; type: ADME
[20] = target: T2, Cytochrome P450 1A2 (Homo sapiens, UniProt P05177); test: Inhibition of CYP1A2 (unknown origin); type: ADME
T2 sequence (P05177 whole entry): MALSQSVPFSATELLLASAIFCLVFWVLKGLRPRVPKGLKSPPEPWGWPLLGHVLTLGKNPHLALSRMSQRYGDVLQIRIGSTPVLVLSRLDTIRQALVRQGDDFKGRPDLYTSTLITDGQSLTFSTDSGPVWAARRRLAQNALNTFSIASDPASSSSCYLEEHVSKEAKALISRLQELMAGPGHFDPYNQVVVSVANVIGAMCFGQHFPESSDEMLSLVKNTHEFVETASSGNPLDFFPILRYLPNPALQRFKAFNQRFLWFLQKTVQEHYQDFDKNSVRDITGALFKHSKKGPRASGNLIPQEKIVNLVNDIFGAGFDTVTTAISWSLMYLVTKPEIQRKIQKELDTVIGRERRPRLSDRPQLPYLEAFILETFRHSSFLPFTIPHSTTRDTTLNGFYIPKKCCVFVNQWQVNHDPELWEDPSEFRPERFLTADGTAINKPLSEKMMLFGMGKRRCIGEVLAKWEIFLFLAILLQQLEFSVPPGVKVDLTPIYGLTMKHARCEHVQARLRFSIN

[21] = tested on: Mus musculus; test: Ex vivo antihuntington's disease activity in R6/2 transgenic mouse assessed as decrease of cerebral ventricles size at 3 to 30 mg/kg, po qd measured after 8 weeks by MRI analysis; type: functional, organism-based
[22] = target: Cytochrome P450 2D6 (Homo sapiens, UniProt P10635); test: Inhibition of CYP2D6 (unknown origin); type: ADME
[23] = tested on: Mus musculus; test: Toxicity in R6/2 transgenic mouse assessed as mortality at 1 to 30 mg/kg, po qd; type: organism-based; design: dose 1-30 mg/kg, route oral; conditions: in vivo
[24] = Inhibition of full-length huntingtin Q138 mutant (unknown origin) expressed in human T-RexTM-293 cells co-expressing CRE-Luc assessed as decrease of CREB-mediated transcription after 72 hrs by luciferase reporter gene based luminescence assay; type: cell-based; conditions: HEK293, 72 h
[25] = target: Huntingtin (Rattus norvegicus) (UniProt P51111); test: Inhibition of wild type huntingtin 171-18Q-mediated cell death in Sprague-Dawley rat striatal neurons at 1 to 30 uM by NeuN-positive cell counting assay
[26] = Ratio of drug level in brain to plasma in CD1 mouse at 5 mg/kg, po and iv; type: ADME, organism-based; design: dose 5 mg/kg, route oral; conditions: read-out: BPR
[27] = tested on: Mus musculus; test: Toxicity in R6/2 transgenic mouse assessed as motor impairment at 1 to 30 mg/kg, po qd; type: organism-based; design: dose 1-30 mg/kg, route oral; conditions: in vivo
[28] = tested on: Mus musculus; test: Antihuntington's disease activity in R6/2 transgenic mouse assessed as decrease of cerebral ventricles size at 3 to 30 mg/kg, po qd measured after 8 weeks; type: functional, organism-based

T1 sequence (P08684 whole entry): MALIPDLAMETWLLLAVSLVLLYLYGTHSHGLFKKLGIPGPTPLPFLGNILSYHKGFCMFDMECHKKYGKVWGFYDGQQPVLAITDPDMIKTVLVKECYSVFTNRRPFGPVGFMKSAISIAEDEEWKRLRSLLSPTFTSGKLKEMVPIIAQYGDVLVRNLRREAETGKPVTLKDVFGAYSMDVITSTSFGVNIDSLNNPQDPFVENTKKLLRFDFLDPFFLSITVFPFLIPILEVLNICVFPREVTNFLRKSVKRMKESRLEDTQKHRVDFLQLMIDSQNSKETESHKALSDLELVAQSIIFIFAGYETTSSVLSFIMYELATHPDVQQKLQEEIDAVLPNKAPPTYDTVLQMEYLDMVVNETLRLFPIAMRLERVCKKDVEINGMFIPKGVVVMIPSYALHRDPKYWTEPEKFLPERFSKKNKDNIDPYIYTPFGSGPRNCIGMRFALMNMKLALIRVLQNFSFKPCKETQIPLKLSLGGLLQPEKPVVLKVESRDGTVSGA
Chain of Huntingtin (Rattus norvegicus) (P51111 whole entry): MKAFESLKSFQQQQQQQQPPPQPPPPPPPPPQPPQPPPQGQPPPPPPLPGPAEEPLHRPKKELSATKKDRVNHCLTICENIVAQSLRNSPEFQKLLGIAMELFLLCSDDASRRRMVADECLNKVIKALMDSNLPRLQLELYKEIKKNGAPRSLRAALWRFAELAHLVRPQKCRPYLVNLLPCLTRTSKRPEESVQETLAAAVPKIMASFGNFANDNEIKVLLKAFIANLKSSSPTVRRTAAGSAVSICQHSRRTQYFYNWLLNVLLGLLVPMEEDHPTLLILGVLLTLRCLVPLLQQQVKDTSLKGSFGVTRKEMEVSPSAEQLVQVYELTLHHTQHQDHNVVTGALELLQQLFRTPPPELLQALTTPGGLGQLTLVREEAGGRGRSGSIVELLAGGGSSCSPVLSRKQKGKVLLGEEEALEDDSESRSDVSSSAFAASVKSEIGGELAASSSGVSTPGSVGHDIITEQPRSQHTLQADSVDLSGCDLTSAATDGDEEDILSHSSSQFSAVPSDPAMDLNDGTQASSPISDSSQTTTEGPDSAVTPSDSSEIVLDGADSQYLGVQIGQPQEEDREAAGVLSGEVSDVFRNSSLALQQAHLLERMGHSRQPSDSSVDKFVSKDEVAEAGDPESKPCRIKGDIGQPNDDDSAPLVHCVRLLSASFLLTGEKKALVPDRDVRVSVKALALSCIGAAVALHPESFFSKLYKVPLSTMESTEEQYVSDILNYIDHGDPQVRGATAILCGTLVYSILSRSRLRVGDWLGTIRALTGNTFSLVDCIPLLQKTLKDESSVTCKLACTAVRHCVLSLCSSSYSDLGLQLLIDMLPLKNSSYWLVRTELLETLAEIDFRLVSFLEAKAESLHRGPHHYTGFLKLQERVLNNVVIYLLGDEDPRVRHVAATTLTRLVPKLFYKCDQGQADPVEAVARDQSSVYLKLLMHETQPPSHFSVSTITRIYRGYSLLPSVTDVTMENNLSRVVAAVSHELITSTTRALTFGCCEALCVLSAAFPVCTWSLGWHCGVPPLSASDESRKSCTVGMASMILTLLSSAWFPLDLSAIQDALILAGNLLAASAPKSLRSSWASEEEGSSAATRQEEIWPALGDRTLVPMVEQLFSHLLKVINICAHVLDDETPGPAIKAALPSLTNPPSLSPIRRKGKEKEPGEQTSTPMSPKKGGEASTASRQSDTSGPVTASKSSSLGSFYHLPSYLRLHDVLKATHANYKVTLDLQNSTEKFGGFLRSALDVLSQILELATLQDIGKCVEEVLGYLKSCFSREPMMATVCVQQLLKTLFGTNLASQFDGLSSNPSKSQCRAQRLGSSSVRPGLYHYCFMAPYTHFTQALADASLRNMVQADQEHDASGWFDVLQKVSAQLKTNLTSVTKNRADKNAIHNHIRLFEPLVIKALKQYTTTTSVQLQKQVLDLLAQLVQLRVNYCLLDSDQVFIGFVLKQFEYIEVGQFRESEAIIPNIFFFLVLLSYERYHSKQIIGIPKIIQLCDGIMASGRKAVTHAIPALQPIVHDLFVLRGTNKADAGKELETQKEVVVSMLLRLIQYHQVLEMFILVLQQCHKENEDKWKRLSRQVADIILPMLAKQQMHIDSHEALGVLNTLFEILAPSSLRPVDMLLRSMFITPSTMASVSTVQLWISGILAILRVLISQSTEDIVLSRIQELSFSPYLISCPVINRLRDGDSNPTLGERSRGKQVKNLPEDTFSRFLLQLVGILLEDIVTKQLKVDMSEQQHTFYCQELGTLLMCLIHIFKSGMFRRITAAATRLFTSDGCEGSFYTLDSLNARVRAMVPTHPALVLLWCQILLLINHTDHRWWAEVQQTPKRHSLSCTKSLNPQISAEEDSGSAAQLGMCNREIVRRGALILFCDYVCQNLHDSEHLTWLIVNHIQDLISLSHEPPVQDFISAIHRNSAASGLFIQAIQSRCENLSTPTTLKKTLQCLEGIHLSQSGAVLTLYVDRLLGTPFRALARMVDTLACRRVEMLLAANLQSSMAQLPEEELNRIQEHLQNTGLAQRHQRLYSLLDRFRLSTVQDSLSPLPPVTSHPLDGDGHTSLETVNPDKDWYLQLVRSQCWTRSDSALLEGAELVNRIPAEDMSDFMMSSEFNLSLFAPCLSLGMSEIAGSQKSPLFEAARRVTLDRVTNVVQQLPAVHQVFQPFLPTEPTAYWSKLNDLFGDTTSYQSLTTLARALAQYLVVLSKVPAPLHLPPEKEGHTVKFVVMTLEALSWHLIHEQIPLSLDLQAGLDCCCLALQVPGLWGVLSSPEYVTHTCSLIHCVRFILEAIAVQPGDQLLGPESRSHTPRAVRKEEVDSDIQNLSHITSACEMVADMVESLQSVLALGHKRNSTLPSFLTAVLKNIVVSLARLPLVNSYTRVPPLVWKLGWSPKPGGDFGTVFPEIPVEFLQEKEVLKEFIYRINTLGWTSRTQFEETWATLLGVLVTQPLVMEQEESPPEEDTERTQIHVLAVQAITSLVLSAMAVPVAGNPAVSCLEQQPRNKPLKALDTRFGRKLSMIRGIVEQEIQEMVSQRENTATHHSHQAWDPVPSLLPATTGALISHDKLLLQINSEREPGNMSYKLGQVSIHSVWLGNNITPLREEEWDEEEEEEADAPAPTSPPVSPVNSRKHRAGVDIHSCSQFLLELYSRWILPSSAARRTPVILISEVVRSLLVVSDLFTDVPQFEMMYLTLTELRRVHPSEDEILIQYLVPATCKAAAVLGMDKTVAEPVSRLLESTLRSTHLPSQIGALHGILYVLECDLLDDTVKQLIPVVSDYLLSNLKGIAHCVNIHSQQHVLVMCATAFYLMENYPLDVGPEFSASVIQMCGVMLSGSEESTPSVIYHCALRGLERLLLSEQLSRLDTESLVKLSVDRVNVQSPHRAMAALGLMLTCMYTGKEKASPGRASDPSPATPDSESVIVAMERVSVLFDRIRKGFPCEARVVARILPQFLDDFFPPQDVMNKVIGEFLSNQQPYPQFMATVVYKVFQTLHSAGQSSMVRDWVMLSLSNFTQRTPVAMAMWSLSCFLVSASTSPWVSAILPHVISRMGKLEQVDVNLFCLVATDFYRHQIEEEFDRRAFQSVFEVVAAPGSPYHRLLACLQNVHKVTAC
Chain of Voltage-gated inwardly rectifying potassium channel KCNH2 (Q12809 whole entry, the tested form may be a part): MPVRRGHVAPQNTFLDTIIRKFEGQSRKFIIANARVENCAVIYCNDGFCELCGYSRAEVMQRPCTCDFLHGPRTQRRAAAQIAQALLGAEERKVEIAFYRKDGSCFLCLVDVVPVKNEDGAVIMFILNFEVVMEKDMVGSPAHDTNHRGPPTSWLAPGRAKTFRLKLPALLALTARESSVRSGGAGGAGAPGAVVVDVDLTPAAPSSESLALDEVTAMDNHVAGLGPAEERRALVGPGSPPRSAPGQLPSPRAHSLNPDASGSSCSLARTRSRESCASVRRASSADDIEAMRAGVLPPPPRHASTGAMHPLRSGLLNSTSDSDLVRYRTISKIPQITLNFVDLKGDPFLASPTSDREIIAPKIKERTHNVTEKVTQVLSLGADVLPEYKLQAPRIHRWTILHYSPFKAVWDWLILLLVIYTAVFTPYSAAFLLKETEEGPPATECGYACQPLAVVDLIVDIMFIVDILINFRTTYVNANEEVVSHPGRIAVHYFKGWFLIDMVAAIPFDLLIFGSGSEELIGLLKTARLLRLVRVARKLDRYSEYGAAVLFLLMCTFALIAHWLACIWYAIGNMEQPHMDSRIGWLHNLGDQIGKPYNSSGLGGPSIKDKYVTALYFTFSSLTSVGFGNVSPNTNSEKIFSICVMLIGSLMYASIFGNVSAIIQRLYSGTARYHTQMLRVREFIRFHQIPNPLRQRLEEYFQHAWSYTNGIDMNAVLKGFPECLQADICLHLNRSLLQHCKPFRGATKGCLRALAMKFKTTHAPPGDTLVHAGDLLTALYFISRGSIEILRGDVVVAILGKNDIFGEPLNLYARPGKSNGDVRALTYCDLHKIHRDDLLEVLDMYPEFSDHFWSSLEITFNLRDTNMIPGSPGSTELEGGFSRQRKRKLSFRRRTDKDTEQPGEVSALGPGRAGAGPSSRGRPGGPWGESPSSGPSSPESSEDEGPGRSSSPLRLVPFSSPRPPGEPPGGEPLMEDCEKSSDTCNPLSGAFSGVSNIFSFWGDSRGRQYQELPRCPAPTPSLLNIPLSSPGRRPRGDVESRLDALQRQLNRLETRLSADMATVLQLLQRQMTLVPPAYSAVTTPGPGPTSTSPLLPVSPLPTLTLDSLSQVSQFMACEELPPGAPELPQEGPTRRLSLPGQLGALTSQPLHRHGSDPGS

Nc1nc(C(=O)N2N=C3CCCC[C@@H]3[C@@]2(O)C(F)(F)F)cs1 (racemic)
INH [1]: 24.4 µM | Stability [2]: Stable | inhibition [3]: Active | solubility kinetic [4]: 96 µM (≈ 32.1 µg/mL) | Activity [5]: Non-toxic | INH [6]: > 30 µM | Activity [7]: Active | Activity [8]: Active | Activity [9]: Non-toxic | Activity [10]: Non-toxic | Emax [11]: 44% | INH [12]: > 30 µM | Papp A→B at 2 h [13]: 310 nm/s | microsomal CLint at 1 µM [14]: 13.6 µL/min/mg | microsomal CLint at 1 µM [15]: 27.6 µL/min/mg | Ratio [16]: 1.1 | inhibition (INH) [17]: Not Active | inhibition [18]: Active | INH [19]: > 30 µM | INH [20]: > 30 µM | Activity [21]: Active | INH [22]: > 30 µM | Activity [23]: Non-toxic | EC50 [24]: 1.8 µM | inhibition [25]: Active | Kp [26]: 0.34 | Activity [27]: Non-toxic | Activity [28]: Active
